Laboratory results reported in patent US20210255193A1, “LYSINE REACTIVE PROBES AND USES THEREOF” (The Scripps Research Institute, priority 2017, published 2021).

Legend:
Assay in all cases: competitive isoTOP-ABPP
[1] = molecular target: T1, NUDT2 Bis(5-nucleosyl)-tetraphosphatase (Homo sapiens, UniProt P50583); assay type: binding; settings: for isoTOP-ABPP ratio (R) at liganded lysine P50583_K89: 50 uM, in vitro, sol, 231; for isoTOP-ABPP ratio, lysine P50583_K89: possible other lysine P50583_K87; for reaction with K89 by isoTOP-ABPP: NUDT2 K89
T1 construct: isoTOP-ABPP experiments performed in cell lysates (in vitro); endogenous in cells
T1 sequence (P50583 whole entry): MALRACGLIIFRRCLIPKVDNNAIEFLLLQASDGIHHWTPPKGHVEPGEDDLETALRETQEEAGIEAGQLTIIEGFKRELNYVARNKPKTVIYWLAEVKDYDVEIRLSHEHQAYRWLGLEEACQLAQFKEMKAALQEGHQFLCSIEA
Protocol: (§1) In vitro covalent fragment treatment for isoTOP-ABPP. All compounds were made up as solutions in DMSO (100×) and were used at a final concentration of 50 μM for activated esters and 100 μM for guanidinylating agents. For each profiling sample, 0.5 ml of lysate was treated with 5 μl of the 100× compound stock solution or 5 μl of DMSO. Samples were treated with activated esters for
(§2) STP-alkyne labeling and click chemistry. For concentration-dependent reactivity measurements by isoTOP-ABPP, 0.5 ml proteome aliquots were treated at ambient temperature with 1 mM STP-alkyne 1 (5 μl of 100 mM stock in DMSO) and 0.1 mM STP alkyne 1 (5 μl of 10 mM stock in DMSO), respectively. For competitive isoTOP-ABPP, after in vitro fragment treatment (detailed above), the samples were labeled for 1 h at ambient temperature with 0.1 mM STP-alkyne 1 (5 μl of 10 mM stock in DMSO). Samples were conjugated by copper-mediated azide-alkyne cycloaddition (CuAAC) to either the light (1 mM STP-alkyne or fragment treated) or heavy (0.1 mM STP-alkyne or DMSO treated) TEV tags (10 μl of 5 mM stocks in DMSO, final concentration=100 μM) using tris(2-carboxyethyl)phosphine hydrochloride
(§3) R value calculation and processing. The ratios of light and heavy MS1 peaks for each unique peptide were quantified with a CIMAGE software using default parameters (3 MS1 acquisitions per peak and signal to noise threshold set to 2.5). For reactivity measurements by isoTOP-ABPP, the R value was calculated from the ratio of MS1 peak areas, comparing the 1 mM STP alkyne sample (light TEV tag) with the 0.1 mM STP alkyne sample (heavy TEV tag). For competitive isoTOP-ABPP, the R value was calculated from the ratio of MS1 peak areas, comparing the DMSO treated sample (heavy TEV tag) with the compound treated sample (light TEV tag). […] Ratios for unique peptide entries are calculated for each experiment; overlapping peptides with the same modified lysine (for example, different charge states, MudPIT chromatographic steps or tryptic termini) are grouped together and the median ratio is reported as the final ratio (R). The peptide ratios reported by CIMAGE were further filtered to ensure the removal or correction of low-quality ratios in each individual data set. The quality filters applied were the following: removal of half tryptic peptides; for ratios with high standard deviations from the median (90% of the median or above) the lowest ratio was taken instead of the median; removal of peptides with R=20 and only a single MS2 event triggered during the elution of the parent ion; manual annotation of all the peptides with ratios of 20, removing any peptides with low quality elution profiles that remained after the previous curation steps (only done for competitive isoTOP-ABPP).
(§4) Cross-data processing for fragment screening. For compound treated samples, biological replicates of the same condition were averaged, if the standard deviation was below 60% of the mean; otherwise, for lysines with at least one R value <4 for a particular compound, the lowest value of the ratio set was taken. For lysines, where all R values for a particular compound were ≥4, the average was reported. For peptides containing several possible modified lysines, the lysine with the highest number of quantification events was used for analysis and the remaining, redundant peptides were reported as alternative modification sites. Peptides included in the aggregate dataset (those used for further bioinformatics and statistical analyses) were required to have been quantified in 2 experiments for competitive isoTOP-ABPP. Lysines were categorized as liganded, if they had at least one ratio R≥4 (hit fragments). For liganded lysines with R=20 for all liganding events, lysines were required to have been quantified with R=20 in two separate experiments and were further required to have been quantified with R<20 in one additional experiment.

[2] = molecular target: T2, TPD52L2 Tumor protein D54 (Homo sapiens, UniProt O43399); assay type: binding; settings: for isoTOP-ABPP ratio (R) at liganded lysine O43399_K90: 50 uM, in vitro, sol, 231
T2 construct: isoTOP-ABPP experiments performed in cell lysates (in vitro); endogenous in cells; host or cells: MDA-MB-231 soluble lysate
T2 sequence (O43399 whole entry): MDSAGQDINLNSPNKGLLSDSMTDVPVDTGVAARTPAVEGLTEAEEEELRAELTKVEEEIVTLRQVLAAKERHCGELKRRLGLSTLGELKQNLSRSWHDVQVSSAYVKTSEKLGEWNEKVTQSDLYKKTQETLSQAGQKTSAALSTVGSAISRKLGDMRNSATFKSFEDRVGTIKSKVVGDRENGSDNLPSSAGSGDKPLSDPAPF
Protocol: as §1, §2, §3, §4

[3] = molecular target: T3, PFKP 6-phosphofructokinase type C (Homo sapiens, UniProt Q01813); assay type: binding; settings: for isoTOP-ABPP ratio (R) at liganded lysine Q01813_K688: 50 uM, in vitro, sol, 231
T3 construct: isoTOP-ABPP experiments performed in cell lysates (in vitro); endogenous in cells
T3 sequence (Q01813 1-784): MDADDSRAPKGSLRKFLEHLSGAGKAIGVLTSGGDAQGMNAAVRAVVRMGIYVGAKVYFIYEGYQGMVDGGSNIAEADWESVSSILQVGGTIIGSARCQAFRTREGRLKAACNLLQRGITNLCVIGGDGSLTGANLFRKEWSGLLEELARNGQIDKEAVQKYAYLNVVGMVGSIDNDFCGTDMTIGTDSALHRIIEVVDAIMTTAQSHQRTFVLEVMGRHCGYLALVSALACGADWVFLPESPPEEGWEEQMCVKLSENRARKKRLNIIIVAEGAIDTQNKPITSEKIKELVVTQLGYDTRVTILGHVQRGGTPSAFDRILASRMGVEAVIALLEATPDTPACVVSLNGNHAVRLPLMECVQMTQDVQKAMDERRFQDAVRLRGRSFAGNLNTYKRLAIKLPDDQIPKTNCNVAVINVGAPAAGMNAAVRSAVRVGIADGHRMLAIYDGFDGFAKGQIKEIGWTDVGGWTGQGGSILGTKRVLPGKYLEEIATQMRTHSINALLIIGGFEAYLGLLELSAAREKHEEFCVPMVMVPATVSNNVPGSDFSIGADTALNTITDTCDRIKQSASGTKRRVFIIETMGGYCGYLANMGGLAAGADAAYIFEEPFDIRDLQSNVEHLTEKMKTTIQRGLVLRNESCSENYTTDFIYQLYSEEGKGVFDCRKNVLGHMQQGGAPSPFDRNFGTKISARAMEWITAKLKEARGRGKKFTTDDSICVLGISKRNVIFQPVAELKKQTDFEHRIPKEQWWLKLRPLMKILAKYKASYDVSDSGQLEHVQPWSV
Protocol: as §1, §2, §3, §4

[4] = molecular target: T4, ABCE1 ATP-binding cassette sub-family E member 1 (Homo sapiens, UniProt P61221); settings: for isoTOP-ABPP ratio (R) at liganded lysine P61221_K191 / isoTOP-ABPP ratio (R) at liganded lysine P61221_K478: 50 uM, in vitro, sol, 231
T4 construct: isoTOP-ABPP experiments performed in cell lysates (in vitro); endogenous in cells; host or cells: soluble proteome of human cancer cell lines (MDA-MB-231, Ramos, Jurkat)
Protocol: as §1, §2, §3, §4

| SMILES | isoTOP-ABPP ratio, lysine P50583_K89 ([1]; 50 uM_231_sol_in vitro) | isoTOP-ABPP ratio, lysine O43399_K90 ([2]; 50 uM_231_sol_in vitro) | isoTOP-ABPP ratio, lysine Q01813_K688 ([3]; 50 uM_231_sol_in vitro) | isoTOP-ABPP ratio, lysine P61221_K191 ([4]; 50 uM_231_sol_in vitro) | isoTOP-ABPP ratio, lysine P61221_K478 ([4]; 50 uM_231_sol_in vitro) | further results |
| --- | --- | --- | --- | --- | --- | --- |
| O=C(Oc1ccc([N+](=O)[O-])cc1[N+](=O)[O-])C(c1ccccc1)(c1ccccc1)c1ccccc1 [fragment 42, 2,4-Dinitrophenyl 2,2,2-triphenylacetate] | – | – | – | – | – | isoTOP-ABPP ratio (R) at liganded lysine P50583_K89 [1]: 1.0; isoTOP-ABPP ratio (R) at liganded lysine O43399_K90 [2]: 1.0; isoTOP-ABPP ratio (R) at liganded lysine Q01813_K688 [3]: 1.0; isoTOP-ABPP ratio (R) at liganded lysine P61221_K191 [4]: 1.0; isoTOP-ABPP ratio (R) at liganded lysine P61221_K478 [4]: 1.1 |
| CC(=O)Oc1ccc([N+](=O)[O-])cc1[N+](=O)[O-] [fragment 43, 2,4-Dinitrophenyl acetate] | – | – | – | – | – | isoTOP-ABPP ratio (R) at liganded lysine P50583_K89 [1]: 1.1; isoTOP-ABPP ratio (R) at liganded lysine O43399_K90 [2]: 1.1; isoTOP-ABPP ratio (R) at liganded lysine Q01813_K688 [3]: 3.9; isoTOP-ABPP ratio (R) at liganded lysine P61221_K191 [4]: 1.3; isoTOP-ABPP ratio (R) at liganded lysine P61221_K478 [4]: 1.4 |
| N#Cc1ccc(C(=O)Oc2ccc([N+](=O)[O-])cc2[N+](=O)[O-])cc1 [fragment 44, 2,4-Dinitrophenyl 4-cyanobenzoate] | 0.9 | 1.1 | 4.2 | 1.1 | 0.9 | – |
| O=C(CCc1ccc2c(c1)OCO2)Oc1ccc([N+](=O)[O-])cc1[N+](=O)[O-] [fragment 45, 2,4-Dinitrophenyl 3-(benzo[d][1,3]dioxol-5-yl)propanoate] | 1.7 | 1.5 | 20.0 | 1.1 | 1.5 | – |
| O=C(ON1C(=O)CCC1=O)c1cc(C(F)(F)F)cc(C(F)(F)F)c1 [fragment 46, 3,5-Bis(trifluoromethyl)benzoic acid NHS ester] | 1.1 | 1.4 | 1.7 | 20.0 | 11.4 | – |
| O=C(Oc1c(F)c(F)c(C(F)(F)F)c(F)c1F)c1cc(C(F)(F)F)cc(C(F)(F)F)c1 [fragment 47, 2,3,5,6-Tetrafluoro-4-(trifluoromethyl)phenyl 3,5-bis(trifluoromethyl)benzoate] | 1.0 | 2.0 | 1.0 | 1.7 | 1.4 | – |
| O=C(Oc1c(F)c(F)cc(F)c1F)c1cc(C(F)(F)F)cc(C(F)(F)F)c1 [fragment 48, 2,3,5,6-Tetrafluorophenyl 3,5-bis(trifluoromethyl)benzoate] | 1.0 | 1.8 | 1.4 | 1.0 | 1.1 | – |
| COC(=O)NC(=NC(=O)OCC1c2ccccc2-c2ccccc21)n1cccn1 [fragment 49, N-Methoxycarbonyl-N′-9-fluorenylmethoxycarbonyl-pyrazole-1-carboxamidine] | – | – | – | – | – | isoTOP-ABPP ratio, lysine P50583_K89 ([1]; 100 uM_231_sol_in vitro): 20.0; reaction with K89 by isoTOP-ABPP [1]: preferentially reacting; isoTOP-ABPP ratio, lysine O43399_K90 ([2]; 100 uM_231_sol_in vitro): 2.9; isoTOP-ABPP ratio, lysine Q01813_K688 ([3]; 100 uM_231_sol_in vitro): 9.6; isoTOP-ABPP ratio, lysine P61221_K191 ([4]; 100 uM_231_sol_in vitro): 20.0; isoTOP-ABPP ratio, lysine P61221_K478 ([4]; 100 uM_231_sol_in vitro): 1.0 |
| CC(C)(C)OC(=O)N=C(NC(=O)OC(C)(C)C)n1cccn1 [fragment 50, reference compound] | – | – | – | – | – | isoTOP-ABPP ratio, lysine P50583_K89 ([1]; 100 uM_231_sol_in vitro): 20.0; reaction with K89 by isoTOP-ABPP [1]: preferentially reacting; isoTOP-ABPP ratio, lysine O43399_K90 ([2]; 100 uM_231_sol_in vitro): 2.2; isoTOP-ABPP ratio, lysine Q01813_K688 ([3]; 100 uM_231_sol_in vitro): 18.2; isoTOP-ABPP ratio, lysine P61221_K191 ([4]; 100 uM_231_sol_in vitro): 14.1; isoTOP-ABPP ratio, lysine P61221_K478 ([4]; 100 uM_231_sol_in vitro): 2.1 |
| NC(=O)c1cc(C(F)(F)F)cc(C(F)(F)F)c1 [fragment 51, reference compound] | 0.9 | 1.0 | 0.9 | 1.0 | 0.9 | – |
